Consider six compounds from patent US20170202787A1, “TREATMENT OF CHRONIC OBSTRUCTIVE PULMONARY DISEASE WITH NEBULIZED BETA 2-AGONIST OR COMBINED NEBULIZED BETA 2-AGONIST AND ANTICHOLINERGIC ADMINISTRATION” (Sunovion Respiratory Development, Inc., priority 2009, published 2017).

The nature of series [1]: Example 6: randomized, cross-over, single dose study of nebulized salmeterol in healthy volunteers.
The conditions of series [2]: approved twice-daily dosing in COPD; cited from earlier work.
For series [3] the following is noted: nebulized, clinical trial in COPD; cited from earlier work.
Assay in series [4]: not given
The source holds these as a separate data set.

For series [5] the following is noted: high efficiency nebulizer.
Assay in series [6]: not given
The source holds these as a separate data set.

Assay in series [7]: not given
This is another data set of the same source.

[8] abbreviates: lower dose, high efficiency nebulizer.
Where [9] appears, read: conventional nebulizer, same or higher dose.

SMILES strings stand for the structures. Counter-ions that a name gives are not always drawn. Like-named read-outs stand apart in the source and are kept apart here.

Take `OCc1cc(C(O)CNCCCCCCOCCCCc2ccccc2)ccc1O` (centres unmarked) [salmeterol]: the “duration of clinically meaningful bronchodilation” value in series [1] (high efficiency nebulizer) was “at least 24 hours”. Further, the “period of time of therapeutic effect” value in series [1] (high efficiency nebulizer, tested doses) lay in the range of 12 to 24 h. Also, in series [1] (setting [8]), the “adverse event profile / side effects (serum potassium, glucose) compared to a selected dose with a conventional nebulizer” value is given as “improved adverse event profile and/or improved side effects” and the “therapeutic effects compared to a selected dose with a conventional nebulizer” value was “improved or similar therapeutic effects”. Further, the “duration of clinically meaningful bronchodilation” value in series [1] (same dose with conventional nebulizer, metered dose inhaler, or dry powder inhaler) is “less than 24 hours”.

With `COc1ccc(C[C@@H](C)NC[C@H](O)c2ccc(O)c(NC=O)c2)cc1.COc1ccc(C[C@@H](C)NC[C@H](O)c2ccc(O)c(NC=O)c2)cc1.O=C(O)/C=C/C(=O)O` [formoterol fumarate], the “duration of clinically meaningful bronchodilation with acceptable side effects” value (shortened to “duration … with acceptable side effects”) in series [2] is 12 h.

As for `COc1ccc(C[C@@H](C)NC[C@H](O)c2ccc(O)c(NC=O)c2)cc1` [arformoterol tartrate], in series [3], the “duration of clinically meaningful bronchodilation” value was 24 h and the “side effects at the dosing giving 24 hours of bronchodilation” value was “unacceptable side effects”. The “duration … with acceptable side effects” value in series [2] is 12 h.

Turning to `COc1ccc(CC(C)NCC(O)c2ccc(O)c(NC=O)c2)cc1` (racemic) [formoterol], the “duration of clinically meaningful bronchodilation” value under setting [9] was “less than 24 hours”, the “duration of clinically meaningful bronchodilation” value (high efficiency nebulizer) was “at least 24 hours”, the “duration of clinically meaningful bronchodilation” value in series [4] (setting [9]) is recorded as “less than 24 hours” and the “duration of clinically meaningful bronchodilation” value in series [4] (high efficiency nebulizer) is “at least 24 hours”.

`COc1ccc(C[C@@H](C)NC[C@H](O)c2ccc(O)c(NC=O)c2)cc1` [arformoterol, R,R-formoterol]: the “adverse event profile compared to a comparable or lower dose with a conventional nebulizer” value in series [5] is on record as “improved adverse event profile”. Besides, the “lung deposition compared to a comparable or higher dose with a conventional nebulizer” value in series [5] is on record as “higher degree of lung deposition”. The “duration of clinically meaningful bronchodilation” value in series [6] (setting [9]) is “less than 24 hours”; in series [6] (high efficiency nebulizer) it was “at least 24 hours”; in series [7] (setting [9]), “less than 24 hours”; in series [7] (high efficiency nebulizer), “at least 24 hours”.

As to `OCc1cc(C(O)CNCCCCCCOCCCCc2ccccc2)ccc1O` (centres unmarked) [salmeterol xinafoate], in series [2], the “duration … with acceptable side effects” value was 12 h.
